Where a SMILES comes first, the peptide text is derived from it.
Tests used:
[1] = molecular target: T1, Her3-Fc (Homo sapiens, UniProt P21860); assay: SPR binding to Her3-Fc; conditions: Biacore S200, 25°C; Her3-Fc Avi-tag on chip SA; HBS-EP+ plus 1% DMSO; MCK
T1 construct: purchased R&D 348-RB
Protocol: (§1) All binding experiments were performed using a Biacore S200 instrument (GE Healthcare) at 25°C at a flow rate of 50 μL/min. The kinetics and affinity measurements were carried out using either single-cycle or multi-cycle kinetics (SCK or MCK), solvent corrected and referenced by subtracting the signal to the blank flow cell. Binding affinity and kinetic parameters (association and dissociation rate constants, and dissociation equilibrium constant) were calculated with the Biacore S200 Evaluation Software (version 1.1.1, Cytiva) using either a 1:1 binding model or a steady-state equilibrium model (according to the manufacturer’s instructions).
Her3-Fc Avi-tag (R&D) was captured at about 1200 and 3000 RU on Series S Sensor Chip SA (Cytiva). The SPR measurements were done in HBS-EP+ buffer (0.01 M HEPES pH 7.4, 0.15 M NaCl, 3 mM EDTA, 0.05% v/v Surfactant P20) plus 1% v/v DMSO.

[2] = molecular target: T1, Her3-Fc; assay: Spot phage ELISA, Her3-Fc; assay type: binding
[3] = molecular target: T2, Notch2Long (Notch2 EGF6-EGF12) (Homo sapiens, UniProt Q04721); assay: SPR binding of synthetic DCPs to Notch2Long; conditions: Biacore S200, 25°C, 50 μL/min; synthetic in vitro folded peptide, 3-fold dilution from 100 μM; biotinylated N2L on chip SA; steady state fitting; at least three independent experiments; n/d = no binding
T2 construct: Biotinylated N2L protein (D219–E418, made in-house); His tag (cleaved yes); made in house; host or cells: CHO
T2 sequence (Q04721 219-418): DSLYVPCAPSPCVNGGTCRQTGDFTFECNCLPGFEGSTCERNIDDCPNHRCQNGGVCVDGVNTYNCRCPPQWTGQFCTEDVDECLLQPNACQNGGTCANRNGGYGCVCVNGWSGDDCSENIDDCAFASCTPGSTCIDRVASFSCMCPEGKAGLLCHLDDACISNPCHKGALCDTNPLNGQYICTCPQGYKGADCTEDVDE
Protocol: as §1
Biotinylated N2L protein (D219–E418, made in-house) and NRR protein (A1423–Q1677, made in-house) were captured at around 500, 1000 and 1500 RU on Sensor Chip SA (Cytiva).

[4] = test system: Notch2Long; assay: Spot phage ELISA, Notch2Long; assay type: binding, human; conditions: Table 3, affinity maturation clones
[5] = test system: Notch 2; assay: Phage competition ELISA on Notch 2; assay type: binding, human; conditions: N2L_EET03 peptide against N2L_EET31 displaying phage (Fig 5C)
Description: Subsequently, we selected another primary hit, N2L.EET31, for affinity maturation as outlined in Fig 5A with improved outcome. Despite displaying a weak ELISA signal, N2L.EET31 was identified as the most abundant sequence by NGS analysis (56.6% in round 4). […] Due to these observations, N2L.EET31 was selected as another candidate for affinity maturation. An NNK-walking experiment (described in the methods section) provided valuable information on the functional importance of individual loop residues. […] These residues are either crucial for binding or play a critical role in overall peptide folding. […] Based on this information, we designed hard randomization libraries for Loop 2 and Loop 3_4 as part of the second generation of affinity maturation.

[6] = molecular target: T3, HtrA1 FL (Homo sapiens, UniProt Q92743); assay type: binding; conditions: Biacore S200, 25°C; biotinylated HtrA1 FL on chip SA; 10 mM HEPES (8.0), 200mM NaCl, 0.25% CHAPS, 5% DMSO; steady state fitting; n/d = no binding; read-out: Kd(μM) SPR
T3 construct: HtrA1 (Q23-P480, 5654, Tni Baculovirus); made in house; host or cells: Trichoplusia ni (Tni) cells, baculovirus
T3 sequence (Q92743 23-480): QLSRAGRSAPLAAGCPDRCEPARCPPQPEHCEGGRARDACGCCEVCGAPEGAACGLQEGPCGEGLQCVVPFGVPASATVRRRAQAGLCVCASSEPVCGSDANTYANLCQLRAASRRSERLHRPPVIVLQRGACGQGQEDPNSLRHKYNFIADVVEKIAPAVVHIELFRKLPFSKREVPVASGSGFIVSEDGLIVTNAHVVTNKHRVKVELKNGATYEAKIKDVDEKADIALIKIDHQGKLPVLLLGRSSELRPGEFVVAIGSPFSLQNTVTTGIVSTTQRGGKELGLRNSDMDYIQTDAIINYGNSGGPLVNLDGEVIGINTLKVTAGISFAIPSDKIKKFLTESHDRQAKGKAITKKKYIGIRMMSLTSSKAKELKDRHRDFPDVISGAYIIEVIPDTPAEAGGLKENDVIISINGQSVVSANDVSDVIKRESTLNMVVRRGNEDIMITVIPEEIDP

[7] = test system: HtrA1; assay type: binding, human; conditions: ratio of signal for target protein over BSA background
[8] = molecular target: T3, HtrA1 FL; assay: HtrA1 enzyme assay with substrate H2-OPT; assay type: biochemical; conditions: 20 μM DCP, 1 nM HtrA1, 5 μM H2-OPT, 15 min pre-incubation, 37°C, pH 8.0, 0.1% DMSO; average of three independent experiments (Fig 3B)
Protocol: Human full-length HtrA1 (HtrA1 FL) was expressed in Trichoplusia ni cells and purified as described. Enzyme assays with the fluorescence-quenched synthetic substrate Mca-[…](Dnp)KK (H2-OPT) were carried out essentially as described (Eigenbrot 2012). DCP stock solutions in DMSO were diluted in 50 mM Tris-HCl, pH 8.0, 200 mM NaCl, 0.25% CHAPS (assay buffer) and incubated with HtrA1 in 96-well black optical bottom plates for 15 min at 37°C. A 10 mM stock solution of H2-OPT in DMSO was diluted with water, prewarmed at 37°C and then added to the DCP-enzyme mixtures. The final concentrations in the reaction mixtures were: 1 nM HtrA1, 20 μM DCP, 5 μM H2-OPT, 0.1% DMSO. Substrate cleavage was measured at 37°C on a SPECTRAmax M5 microplate reader (Molecular Devices) and the initial rates of cleavage determined. […] The enzyme activities were expressed as percent of control values (without DCP). The determined values represent the average ± S.D. of three independent experiments.

T1 sequence (P21860 20-643 limits assumed): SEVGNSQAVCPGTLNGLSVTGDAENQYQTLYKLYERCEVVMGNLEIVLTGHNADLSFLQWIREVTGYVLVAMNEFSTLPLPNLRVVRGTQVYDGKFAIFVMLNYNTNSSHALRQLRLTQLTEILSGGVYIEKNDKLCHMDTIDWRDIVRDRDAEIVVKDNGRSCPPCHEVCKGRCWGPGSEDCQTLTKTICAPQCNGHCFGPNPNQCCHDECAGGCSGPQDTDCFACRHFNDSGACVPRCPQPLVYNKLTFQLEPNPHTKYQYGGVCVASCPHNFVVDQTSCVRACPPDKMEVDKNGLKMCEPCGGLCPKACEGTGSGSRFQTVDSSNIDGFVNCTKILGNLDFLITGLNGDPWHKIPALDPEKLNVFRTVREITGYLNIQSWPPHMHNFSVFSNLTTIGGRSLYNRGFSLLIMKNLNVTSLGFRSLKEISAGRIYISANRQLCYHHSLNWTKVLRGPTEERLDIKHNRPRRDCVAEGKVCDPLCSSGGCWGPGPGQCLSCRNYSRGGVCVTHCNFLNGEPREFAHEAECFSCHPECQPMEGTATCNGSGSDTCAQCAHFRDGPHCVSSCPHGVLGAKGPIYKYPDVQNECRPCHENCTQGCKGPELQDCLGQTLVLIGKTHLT

CC(C)C[C@@H]1NC(=O)[C@H](CCCNC(=N)N)NC(=O)[C@H](CCC(N)=O)NC(=O)[C@@H]2CSSC[C@@H](C(=O)N[C@@H](CCC(=O)O)C(=O)N[C@@H](CCC(=O)O)C(=O)O)NC(=O)[C@H](CCCCN)NC(=O)[C@@H]3CSSC[C@H](NC(=O)[C@H](CCC(=O)O)NC(=O)[C@H](CCCCN)NC(=O)[C@H](CO)NC(=O)[C@H]([C@@H](C)O)NC(=O)[C@H]([C@@H](C)O)NC(=O)[C@@H](NC(=O)[C@H](CO)NC(=O)[C@@H](N)C(C)C)CSSC[C@H](NC(=O)[C@H](CCC(N)=O)NC(=O)[C@H](CCC(=O)O)NC(=O)CNC(=O)[C@H](Cc4c[nH]c5ccccc45)NC(=O)[C@H](CO)NC(=O)[C@H]([C@@H](C)O)NC(=O)[C@H](CC(N)=O)NC(=O)[C@H](Cc4c[nH]cn4)NC1=O)C(=O)N[C@@H](C(C)C)C(=O)N[C@@H]([C@@H](C)O)C(=O)N[C@@H](CCCCN)C(=O)N[C@@H](Cc1ccccc1)C(=O)N3)C(=O)N[C@@H](Cc1c[nH]c3ccccc13)C(=O)N[C@@H](CO)C(=O)N[C@@H](C(C)C)C(=O)N2 [Her3-Fc_ChTx1]
Kd [1]: > 10 µM | S/N ([2]; ratio of signal for target protein over BSA background): 22.6 | ELISA ([2]; spot phage ELISA signal, DCP displayed on M13 p8, L1 2): 1.74

CC[C@H](C)[C@@H]1NC(=O)[C@@H](NC(=O)CN)CSSC[C@@H]2NC(=O)CNC(=O)[C@H](C)NC(=O)[C@H](CC(C)C)NC(=O)[C@@H]3CSSC[C@@H](C(=O)NCC(=O)O)NC(=O)[C@H](CCC(N)=O)NC(=O)[C@H]([C@@H](C)CC)NC(=O)[C@H](Cc4c[nH]c5ccccc45)NC(=O)[C@H](C(C)C)NC(=O)[C@H](CCC(=O)O)NC(=O)[C@H](CSSC[C@H](NC(=O)[C@H](Cc4c[nH]c5ccccc45)NC(=O)[C@H](CC(C)C)NC(=O)[C@H](Cc4c[nH]cn4)NC(=O)[C@H](CO)NC(=O)[C@H](CCCCN)NC1=O)C(=O)N[C@@H](CCCCN)C(=O)N[C@@H](CCC(N)=O)C(=O)N[C@@H](CC(=O)O)C(=O)N[C@@H](CO)C(=O)N[C@@H](CC(=O)O)C(=O)N3)NC(=O)[C@H](C(C)C)NC2=O [N2L.EET31] (HELM PEPTIDE1{G.C.I.K.S.H.L.W.C.K.Q.D.S.D.C.L.A.G.C.V.C.E.V.W.I.Q.C.G}$PEPTIDE1,PEPTIDE1,2:R3-19:R3|PEPTIDE1,PEPTIDE1,9:R3-21:R3|PEPTIDE1,PEPTIDE1,15:R3-27:R3$$$V2.0; N-terminus and C-terminus assumed)
Kd [3]: > 100 µM | s/n ratio ([4]; signal over BSA background): 0.4 | ELISA ([4]; spot phage ELISA signal, display (p8 or p3) not given per clone): 0.1 | competition in phage competition ELISA [5]: exhibited competition with N2L.EET03

CC[C@H](C)[C@@H]1NC(=O)[C@H](CCC(N)=O)NC(=O)[C@H](CCCNC(=N)N)NC(=O)[C@H](C(C)C)NC(=O)[C@@H]2CSSC[C@H](NC(=O)[C@H](CC(=O)O)NC(=O)[C@H](Cc3ccccc3)NC(=O)[C@H](C)N)C(=O)N[C@@H](CC(C)C)C(=O)NCC(=O)N[C@@H](CCC(N)=O)C(=O)N[C@H]3CSSC[C@H](NC(=O)[C@H](Cc4ccc(O)cc4)NC(=O)[C@H](Cc4c[nH]cn4)NC(=O)[C@H](CO)NC(=O)[C@H](CC(C)C)NC(=O)[C@H](CC(N)=O)NC(=O)[C@H]([C@@H](C)CC)NC(=O)[C@H](C(C)C)NC(=O)[C@H](CCCNC(=N)N)NC(=O)[C@H](Cc4c[nH]c5ccccc45)NC(=O)[C@H](C(C)C)NC1=O)C(=O)N[C@@H](CC(N)=O)C(=O)N[C@@H](CO)C(=O)N[C@@H](CO)C(=O)N[C@H](C(=O)N[C@H](C(=O)N[C@@H](CCCNC(=N)N)C(=O)O)[C@@H](C)O)CSSC[C@H](NC(=O)[C@H](CCCNC(=N)N)NC(=O)CNC3=O)C(=O)N[C@@H](CC(=O)O)C(=O)N[C@@H](Cc1ccccc1)C(=O)N[C@@H](Cc1c[nH]cn1)C(=O)N[C@@H](CCCCN)C(=O)N[C@@H](CC(C)C)C(=O)N[C@@H](CCC(N)=O)C(=O)N2 [HtrA1_AVR62] (HELM PEPTIDE1{A.F.D.C.L.G.Q.C.G.R.C.D.F.H.K.L.Q.C.V.R.Q.I.V.W.R.V.I.N.L.S.H.Y.C.N.S.S.C.T.R}$PEPTIDE1,PEPTIDE1,4:R3-18:R3|PEPTIDE1,PEPTIDE1,8:R3-33:R3|PEPTIDE1,PEPTIDE1,11:R3-37:R3$$$V2.0; N-terminus and C-terminus assumed)
Kd [6]: > 15 µM | S/N [7]: 19.5 | inhibition of HtrA1 activity [8]: more than 75%
